Data reported in ChEMBL document CHEMBL5390243, “Catecholamine Derivatives: Natural Occurrence, Structural Diversity, and Biological Activity” (J Nat Prod, 2023).
Blank lines part the entries; values can stand above or below the molecule they belong to.

Assays:
[1] = Cytotoxicity against rat NRK-52E cells assessed as inhibition of cell growth incubated for 24 hrs by CCK-8 assay; assay type: toxicity, cell-based
[2] = molecular target: Delta-type opioid receptor (Homo sapiens, UniProt P41143); experiment: Binding affinity to DOR (unknown origin) assessed as inhibition constant
Bacillus subtilis [3] = experiment: Antibacterial activity against Bacillus subtilis ATCC 6051 assessed as reduction in bacterial growth incubated for 18 to 24 hrs by broth microdilution method; assay type: functional, organism-based
[4] = molecular target: Cyclin-dependent kinase 5/CDK5 activator 1 (Homo sapiens, UniProt Q00535); experiment: Inhibition of N-terminal full length human recombinant CDK5/p25 expressed in baculovirus-infected Sf21 cells incubated for 60 mins in presence of ATP by kinase-glo luminescent assay
[5] = molecular target: Casein kinase I isoform delta (Homo sapiens, UniProt P48730); experiment: Inhibition of N-terminal GST-tagged human recombinant CK1delta (1 to 294 residues) expressed in Escherichia coli incubated for 60 mins in presence of ATP by Kinase-glo luminescent assay
[6] = molecular target: Glycogen synthase kinase-3 beta (Homo sapiens, UniProt P49841); experiment: Inhibition of N-terminal His6-tagged human recombinant GSK3beta expressed in baculovirus-infected Sf21 cells incubated for 60 mins in presence of ATP by ADP-glo analysis
Bacillus subtilis [7] = experiment: Antibacterial activity against Bacillus subtilis ATCC 6633 assessed as reduction in bacterial growth incubated for 18 to 24 hrs by broth microdilution method; assay type: functional, organism-based

Sequence of Delta-type opioid receptor (P41143 whole entry): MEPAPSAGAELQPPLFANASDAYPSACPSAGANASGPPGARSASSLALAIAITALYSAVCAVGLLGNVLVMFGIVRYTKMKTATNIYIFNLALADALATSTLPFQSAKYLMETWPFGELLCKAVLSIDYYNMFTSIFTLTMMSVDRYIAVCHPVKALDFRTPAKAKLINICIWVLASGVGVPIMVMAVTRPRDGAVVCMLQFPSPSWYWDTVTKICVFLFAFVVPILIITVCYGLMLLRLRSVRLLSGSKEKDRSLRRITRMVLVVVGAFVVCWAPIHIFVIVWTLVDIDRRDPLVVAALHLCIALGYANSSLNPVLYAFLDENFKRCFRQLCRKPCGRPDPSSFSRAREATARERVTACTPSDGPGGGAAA
Sequence of Casein kinase I isoform delta (P48730 whole entry, the tested form may be a part, canonical isoform): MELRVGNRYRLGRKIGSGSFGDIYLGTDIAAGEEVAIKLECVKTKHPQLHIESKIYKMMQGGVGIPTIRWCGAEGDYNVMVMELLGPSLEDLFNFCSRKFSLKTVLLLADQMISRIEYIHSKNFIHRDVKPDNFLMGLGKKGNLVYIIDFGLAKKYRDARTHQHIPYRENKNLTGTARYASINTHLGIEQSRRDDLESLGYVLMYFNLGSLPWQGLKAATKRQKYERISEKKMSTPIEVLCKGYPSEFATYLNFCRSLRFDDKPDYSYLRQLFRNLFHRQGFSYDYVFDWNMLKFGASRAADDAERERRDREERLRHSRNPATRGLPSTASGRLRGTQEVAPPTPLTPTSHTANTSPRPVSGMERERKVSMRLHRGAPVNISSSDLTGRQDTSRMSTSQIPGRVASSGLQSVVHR
Sequence of Cyclin-dependent kinase 5/CDK5 activator 1 (Q00535 whole entry, the tested form may be a part, canonical isoform): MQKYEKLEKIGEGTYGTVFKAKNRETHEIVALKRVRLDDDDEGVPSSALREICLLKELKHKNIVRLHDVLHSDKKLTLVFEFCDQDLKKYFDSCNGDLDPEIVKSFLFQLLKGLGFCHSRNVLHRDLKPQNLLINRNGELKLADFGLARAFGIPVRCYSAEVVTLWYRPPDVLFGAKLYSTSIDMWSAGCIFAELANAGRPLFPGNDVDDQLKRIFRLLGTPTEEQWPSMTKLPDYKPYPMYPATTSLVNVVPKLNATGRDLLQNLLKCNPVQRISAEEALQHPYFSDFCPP
Sequence of Cyclin-dependent kinase 5/CDK5 activator 1 (Q15078 whole entry, further chain, the tested form may be a part, canonical isoform): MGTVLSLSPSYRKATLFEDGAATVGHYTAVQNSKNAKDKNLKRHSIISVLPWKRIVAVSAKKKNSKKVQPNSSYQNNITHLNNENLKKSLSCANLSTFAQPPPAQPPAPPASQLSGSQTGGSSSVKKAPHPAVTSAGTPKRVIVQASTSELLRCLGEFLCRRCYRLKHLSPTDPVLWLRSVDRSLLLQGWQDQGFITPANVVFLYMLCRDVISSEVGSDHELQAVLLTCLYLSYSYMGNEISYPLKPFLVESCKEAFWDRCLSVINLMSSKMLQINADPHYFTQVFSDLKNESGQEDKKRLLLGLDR
Sequence of Glycogen synthase kinase-3 beta (P49841 whole entry): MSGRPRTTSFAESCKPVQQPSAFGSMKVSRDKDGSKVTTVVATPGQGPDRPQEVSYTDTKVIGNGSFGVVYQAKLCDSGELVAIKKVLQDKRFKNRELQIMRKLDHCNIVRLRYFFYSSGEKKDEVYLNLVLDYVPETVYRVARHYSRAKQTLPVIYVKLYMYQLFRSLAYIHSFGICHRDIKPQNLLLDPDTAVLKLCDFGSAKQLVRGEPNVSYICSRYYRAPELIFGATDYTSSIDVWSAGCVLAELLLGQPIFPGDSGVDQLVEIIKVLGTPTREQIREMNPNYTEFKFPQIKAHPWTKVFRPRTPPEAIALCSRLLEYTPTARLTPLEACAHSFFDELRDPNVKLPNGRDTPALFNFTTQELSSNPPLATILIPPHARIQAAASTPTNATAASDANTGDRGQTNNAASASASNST

Structure (SMILES): CC(=O)NCCc1ccc2c(c1)O[C@]1(NC(C)=O)[C@H](O2)c2cc(O)c(O)cc2[C@@H](c2ccc(O)c(O)c2)[C@@H]1NC(C)=O
IC50 at 24 h [1]: 30 µM

Ki [2]: 0.485 µM
Structure (SMILES): N=C(N)NCCCC1=NCCc2cc(O)c(O)cc21

IC50 [4]: 10.9 µM | IC50 [5]: 2.3 µM | IC50 [6]: 1.6 µM
Structure (SMILES): O=C(O)c1[nH]c2c(=O)oc3cc(O)c(O)cc3c2c1-c1ccc(O)c(O)c1
IC50 (Bacillus subtilis [3]): 3 µM | IC50 (Bacillus subtilis [7]): 3.8 µM
